biological target: ACC1 (Homo sapiens (Human), UniProt Q13085); assay: In vitro ACC inhibition assay (ADP-Glo), ACC1; assay type: biochemical; conditions: not given
Method: (§1) Compounds of the present invention were evaluated in an in vitro ACC inhibition assay as described by Harwood, et al, 2003, the entirety of which is incorporated herein by reference.
(§2) In Vitro Acetyl-CoA Carboxylase (ACC) Inhibition Assay
(§3) An exemplary procedure for the in vitro ACC inhibition assay, which can be used to determine the inhibitory action of compounds of the invention toward either ACC1 or ACC2, follows. The ADP-Glo™ Kinase Assay kit from Promega was used. The ADP-Glo™ Kinase Assay is a luminescent ADP detection assay to measure enzymatic activity by quantifying the amount of ADP produced during an enzyme reaction. The assay is performed in two steps; first, after the enzyme reaction, an equal volume of ADP-Glo™ Reagent is added to terminate the reaction and deplete the remaining ATP. Second, the Kinase Detection Reagent is added to simultaneously convert ADP to ATP and allow the newly synthesized ATP to be measured using a luciferase/luciferin reaction. Luminescence can be correlated to ADP concentrations by using an ATP-to-ADP conversion curve. The detailed procedure is as follows. 50 μL of the compound being tested (600 uM in DMSO) was added to a 384-well dilution plate. The compound was diluted 1:3 in succession in DMSO for each row for 11 wells. 0.5 μL ACC2 working solution was added to 384-well white Optiplate assay plate. 0.5 μL diluted compound solution in each column from step 2 to assay plate, each row containing 2 replicates. […] The plates were incubated at room temperature for 15 minutes. 5 μL substrate working solution was added to each well to initiate reaction. Final ACC2 reaction concentrations consist of: 5 nM ACC2, 20 μM ATP, 20 μM acetyl-CoA, 12 mM NaHCO3, 0.01% Brij35, 2 mM DTT, 5% DMSO, test compound concentrations: 30 μM, 10 μM, 3.33 μM, 1.11 μM, 0.37 μM, 0.123 μM, 0.0411 μM, 0.0137 μM, 0.00457 μM, 0.00152 μM, and 0.00051 μM. Plates were incubated at room temperature for 60 minutes. 10 μL ADP glo reagent was added. Plates were incubated at room temperature for 40 minutes. 20 μL kinase detection reagent was added. Plates were incubated at room temperature for 40 minutes, then read on a Perkin Elmer EnVision 2104 plate reader for luminescence as Relative Light Units (RLU).
(§4) Data for each concentration, as well as the positive and negative controls were averaged, and the standard deviation calculated. Percent inhibition was calculated by the formula: 100×(average negative control-compound)/(average negative control-average positive control). The IC50 for each compound was calculated by fitting the data with a non-linear regress ion equation: Y=Bottom+(Top−Bottom)/(1+10((Log IC50−X* HillSlope)), where X is the log of compound concentration and Y is percent inhibition.

Compound	IC50
COc1ccccc1[C@H](Cn1c(=O)n(C2(C(=O)O)CCCC2)c(=O)c2c(C)c(-n3nccn3)sc21)OC1CCOCC1 [Example 55]	< 0.001 µM
COc1ccccc1[C@H](Cn1c(=O)n(C2(C(N)=O)CC2)c(=O)c2c(C)c(Br)sc21)OC1CCOCC1 [Example 58]	0.01 to 0.05 µM
COc1ccccc1[C@H](Cn1c(=O)n(C2(CC(=O)O)CC2)c(=O)c2c(C)c(-c3ncco3)sc21)OC1CCOCC1 [Example 61]	0.01 to 0.05 µM
CNC(=O)CC1(n2c(=O)c3c(C)c(Br)sc3n(C[C@H](OC3CCOCC3)c3ccccc3OC)c2=O)CC1 [Example 62]	0.001 to 0.01 µM
CNC(=O)CC1(n2c(=O)c3c(C)c(-c4ncco4)sc3n(C[C@H](OC3CCOCC3)c3ccccc3OC)c2=O)CC1 [Example 63]	0.001 to 0.01 µM
COc1ccccc1[C@H](Cn1c(=O)n(C2(CC(N)=O)CC2)c(=O)c2c(C)c(-c3ncco3)sc21)OC1CCOCC1 [Example 64]	0.001 to 0.01 µM
COc1ccccc1[C@H](Cn1c(=O)n(C2CCC2C(=O)O)c(=O)c2c(C)c(-c3ncco3)sc21)OC1CCOCC1 (some centres unmarked) [Example 69]	< 0.001 µM

biological target: ACC2 (Homo sapiens (Human), UniProt O00763); assay: In vitro ACC inhibition assay (ADP-Glo), ACC2; assay type: biochemical; conditions: 5 nM ACC2, 20 μM ATP, 20 μM acetyl-CoA; read-out: IC50 (μM) ACC2
Method: as §1, §2, §3, §4

Chain of ACC2 (Homo sapiens (Human), UniProt O00763) (O00763 whole entry, species assumed): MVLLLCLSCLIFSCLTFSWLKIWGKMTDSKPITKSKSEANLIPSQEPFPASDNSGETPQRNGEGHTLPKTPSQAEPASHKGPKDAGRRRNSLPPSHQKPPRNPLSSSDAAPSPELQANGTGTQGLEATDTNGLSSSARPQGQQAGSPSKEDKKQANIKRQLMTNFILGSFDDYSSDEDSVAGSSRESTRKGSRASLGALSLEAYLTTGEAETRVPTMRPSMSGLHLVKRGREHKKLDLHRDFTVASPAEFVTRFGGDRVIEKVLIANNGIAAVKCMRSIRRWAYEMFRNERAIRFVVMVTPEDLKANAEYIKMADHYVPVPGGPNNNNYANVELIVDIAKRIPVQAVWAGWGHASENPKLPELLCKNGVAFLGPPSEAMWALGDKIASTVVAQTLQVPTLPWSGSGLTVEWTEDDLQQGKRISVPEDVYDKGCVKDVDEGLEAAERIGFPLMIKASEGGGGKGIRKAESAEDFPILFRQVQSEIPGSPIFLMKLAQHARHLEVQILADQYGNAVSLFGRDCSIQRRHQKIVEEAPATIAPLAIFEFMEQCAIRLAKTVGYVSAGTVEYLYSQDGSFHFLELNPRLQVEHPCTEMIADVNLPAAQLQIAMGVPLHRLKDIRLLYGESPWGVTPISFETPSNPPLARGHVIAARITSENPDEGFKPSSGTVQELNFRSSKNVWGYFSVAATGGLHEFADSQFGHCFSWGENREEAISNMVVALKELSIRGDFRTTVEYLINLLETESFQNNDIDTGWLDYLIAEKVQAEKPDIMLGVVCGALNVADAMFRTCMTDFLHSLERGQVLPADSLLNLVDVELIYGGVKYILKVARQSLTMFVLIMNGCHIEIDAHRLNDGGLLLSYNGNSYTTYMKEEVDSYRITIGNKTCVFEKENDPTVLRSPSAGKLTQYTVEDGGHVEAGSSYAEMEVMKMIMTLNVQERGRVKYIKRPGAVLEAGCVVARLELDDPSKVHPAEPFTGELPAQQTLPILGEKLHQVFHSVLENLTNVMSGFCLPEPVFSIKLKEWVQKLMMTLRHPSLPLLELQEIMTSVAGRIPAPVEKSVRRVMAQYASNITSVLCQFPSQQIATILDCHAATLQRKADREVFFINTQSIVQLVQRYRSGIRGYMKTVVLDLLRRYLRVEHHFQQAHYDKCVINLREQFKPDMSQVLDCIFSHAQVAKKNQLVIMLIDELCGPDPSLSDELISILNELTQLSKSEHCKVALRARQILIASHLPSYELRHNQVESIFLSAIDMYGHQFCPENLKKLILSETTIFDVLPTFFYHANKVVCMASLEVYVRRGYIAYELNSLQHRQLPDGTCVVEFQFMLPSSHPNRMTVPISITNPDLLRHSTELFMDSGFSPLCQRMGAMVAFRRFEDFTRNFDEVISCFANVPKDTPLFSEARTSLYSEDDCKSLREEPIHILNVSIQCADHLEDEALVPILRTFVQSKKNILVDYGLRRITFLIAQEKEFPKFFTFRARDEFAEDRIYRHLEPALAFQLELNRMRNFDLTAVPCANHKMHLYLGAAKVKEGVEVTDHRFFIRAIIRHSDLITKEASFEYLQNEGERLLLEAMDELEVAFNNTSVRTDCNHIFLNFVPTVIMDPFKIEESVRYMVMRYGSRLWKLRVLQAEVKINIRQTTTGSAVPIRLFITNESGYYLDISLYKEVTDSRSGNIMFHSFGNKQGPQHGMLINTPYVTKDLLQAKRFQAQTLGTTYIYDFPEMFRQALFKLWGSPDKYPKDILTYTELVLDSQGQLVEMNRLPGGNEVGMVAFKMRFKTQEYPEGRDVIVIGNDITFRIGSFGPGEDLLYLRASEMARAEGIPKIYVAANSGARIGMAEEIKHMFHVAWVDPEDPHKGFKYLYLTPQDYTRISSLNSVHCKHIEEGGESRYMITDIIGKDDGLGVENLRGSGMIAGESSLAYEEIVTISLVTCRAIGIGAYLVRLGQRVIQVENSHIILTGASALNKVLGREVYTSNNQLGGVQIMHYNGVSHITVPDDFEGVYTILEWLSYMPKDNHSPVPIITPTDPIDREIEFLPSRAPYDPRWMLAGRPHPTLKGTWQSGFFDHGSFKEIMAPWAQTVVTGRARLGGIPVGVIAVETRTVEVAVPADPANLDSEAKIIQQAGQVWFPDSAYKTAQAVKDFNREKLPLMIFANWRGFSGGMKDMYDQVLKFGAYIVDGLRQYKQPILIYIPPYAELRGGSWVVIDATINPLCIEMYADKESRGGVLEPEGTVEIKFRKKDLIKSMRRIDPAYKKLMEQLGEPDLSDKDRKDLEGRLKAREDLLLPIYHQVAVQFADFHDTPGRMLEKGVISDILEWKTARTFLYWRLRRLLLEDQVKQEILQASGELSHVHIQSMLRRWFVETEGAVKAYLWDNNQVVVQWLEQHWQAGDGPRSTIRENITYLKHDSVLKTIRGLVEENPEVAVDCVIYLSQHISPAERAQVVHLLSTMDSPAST

Compound	IC50
COc1ccccc1[C@H](Cn1c(=O)n(C2(C(=O)O)CCCC2)c(=O)c2c(C)c(Br)sc21)OC1CCOCC1 [Example 30]	< 0.01 µM
COc1ccccc1[C@H](Cn1c(=O)n(C2(C(=O)O)CC2)c(=O)c2c(C)c(Cl)sc21)OC1CCOCC1 [Example 40]	0.01 to 0.1 µM
COc1ccccc1[C@H](Cn1c(=O)n(C2(C(=O)NS(C)(=O)=O)CC2)c(=O)c2c(C)c(-c3ncco3)sc21)OC1CCOCC1 [Example 41]	< 0.01 µM
COc1ccccc1[C@H](Cn1c(=O)n(C2(C(=O)O)CCCC2)c(=O)c2c(C)c(-n3nccn3)sc21)OC1CCOCC1 [Example 55]	< 0.01 µM
COc1ccccc1[C@H](Cn1c(=O)n(C2(C(N)=O)CC2)c(=O)c2c(C)c(Br)sc21)OC1CCOCC1 [Example 58]	0.01 to 0.1 µM
COc1ccccc1[C@H](Cn1c(=O)n(C2(CC(=O)O)CC2)c(=O)c2c(C)c(-c3ncco3)sc21)OC1CCOCC1 [Example 61]	< 0.01 µM
CNC(=O)CC1(n2c(=O)c3c(C)c(Br)sc3n(C[C@H](OC3CCOCC3)c3ccccc3OC)c2=O)CC1 [Example 62]	0.01 to 0.1 µM
CNC(=O)CC1(n2c(=O)c3c(C)c(-c4ncco4)sc3n(C[C@H](OC3CCOCC3)c3ccccc3OC)c2=O)CC1 [Example 63]	0.01 to 0.1 µM
COc1ccccc1[C@H](Cn1c(=O)n(C2(CC(N)=O)CC2)c(=O)c2c(C)c(-c3ncco3)sc21)OC1CCOCC1 [Example 64]	< 0.01 µM
COc1ccccc1[C@H](Cn1c(=O)n(C2CCC2C(=O)O)c(=O)c2c(C)c(-c3ncco3)sc21)OC1CCOCC1 (some centres unmarked) [Example 69]	< 0.01 µM

same assay, conditions: ND630 versus RJ compounds; isoform not given; read-out: IC50 (μM) ND630/RJ-cmps(%)

Compound	IC50
COc1ccccc1[C@H](Cn1c(=O)n(C2(C(=O)O)CCCC2)c(=O)c2c(C)c(Br)sc21)OC1CCOCC1 [Example 30]	0.003 to 0.005 µM
COc1ccccc1[C@H](Cn1c(=O)n(C2(C(=O)O)CC2)c(=O)c2c(C)c(Cl)sc21)OC1CCOCC1 [Example 40]	0.005 to 0.01 µM
COc1ccccc1[C@H](Cn1c(=O)n(C2(C(=O)NS(C)(=O)=O)CC2)c(=O)c2c(C)c(-c3ncco3)sc21)OC1CCOCC1 [Example 41]	0.005 to 0.01 µM
COc1ccccc1[C@H](Cn1c(=O)n(C2(C(=O)O)CCCC2)c(=O)c2c(C)c(-n3nccn3)sc21)OC1CCOCC1 [Example 55]	0.005 to 0.01 µM
COc1ccccc1[C@H](Cn1c(=O)n(C2(C(N)=O)CC2)c(=O)c2c(C)c(Br)sc21)OC1CCOCC1 [Example 58]	> 0.01 µM
COc1ccccc1[C@H](Cn1c(=O)n(C2CCC2C(=O)O)c(=O)c2c(C)c(-c3ncco3)sc21)OC1CCOCC1 (some centres unmarked) [Example 69]	> 0.01 µM

system: HepG2; assay: EC50 in HepG2; assay type: cell-based; conditions: HepG2; read-out: EC50 (μM) HepG2

Compound	EC50
COc1ccccc1[C@H](Cn1c(=O)n(C2(C(=O)O)CCCC2)c(=O)c2c(C)c(Br)sc21)OC1CCOCC1 [Example 30]	0.1 to 1 µM
COc1ccccc1[C@H](Cn1c(=O)n(C2(C(=O)O)CC2)c(=O)c2c(C)c(Cl)sc21)OC1CCOCC1 [Example 40]	0.1 to 1 µM
COc1ccccc1[C@H](Cn1c(=O)n(C2(C(=O)NS(C)(=O)=O)CC2)c(=O)c2c(C)c(-c3ncco3)sc21)OC1CCOCC1 [Example 41]	> 1 µM
COc1ccccc1[C@H](Cn1c(=O)n(C(C)(C)C(N)=O)c(=O)c2c(C)c(-c3ncco3)sc21)OC1CCOCC1 [Example 42]	< 0.01 µM
COc1ccccc1[C@H](Cn1c(=O)n(C2(C(=O)O)CCCC2)c(=O)c2c(C)c(-n3nccn3)sc21)OC1CCOCC1 [Example 55]	< 0.01 µM
COc1ccccc1[C@H](Cn1c(=O)n(C2(C(N)=O)CC2)c(=O)c2c(C)c(Br)sc21)OC1CCOCC1 [Example 58]	> 1 µM
COc1ccccc1[C@H](Cn1c(=O)n(C2(CC(=O)O)CC2)c(=O)c2c(C)c(-c3ncco3)sc21)OC1CCOCC1 [Example 61]	0.1 to 1 µM
CNC(=O)CC1(n2c(=O)c3c(C)c(Br)sc3n(C[C@H](OC3CCOCC3)c3ccccc3OC)c2=O)CC1 [Example 62]	0.01 to 0.1 µM
CNC(=O)CC1(n2c(=O)c3c(C)c(-c4ncco4)sc3n(C[C@H](OC3CCOCC3)c3ccccc3OC)c2=O)CC1 [Example 63]	0.01 to 0.1 µM
COc1ccccc1[C@H](Cn1c(=O)n(C2(CC(N)=O)CC2)c(=O)c2c(C)c(-c3ncco3)sc21)OC1CCOCC1 [Example 64]	< 0.01 µM
COc1ccccc1[C@H](Cn1c(=O)n(C2CCC2C(=O)O)c(=O)c2c(C)c(-c3ncco3)sc21)OC1CCOCC1 (some centres unmarked) [Example 69]	< 0.01 µM

same assay, conditions: ND630 versus RJ compounds; read-out: EC50 (μM) ND630/RJ-cmps(%)

Compound	EC50
COc1ccccc1[C@H](Cn1c(=O)n(C2(C(=O)O)CCCC2)c(=O)c2c(C)c(Br)sc21)OC1CCOCC1 [Example 30]	> 1 µM
COc1ccccc1[C@H](Cn1c(=O)n(C2(C(=O)O)CC2)c(=O)c2c(C)c(Cl)sc21)OC1CCOCC1 [Example 40]	> 1 µM
COc1ccccc1[C@H](Cn1c(=O)n(C2(C(=O)NS(C)(=O)=O)CC2)c(=O)c2c(C)c(-c3ncco3)sc21)OC1CCOCC1 [Example 41]	> 1 µM
COc1ccccc1[C@H](Cn1c(=O)n(C(C)(C)C(N)=O)c(=O)c2c(C)c(-c3ncco3)sc21)OC1CCOCC1 [Example 42]	> 1 µM
COc1ccccc1[C@H](Cn1c(=O)n(C2(C(=O)O)CCCC2)c(=O)c2c(C)c(-n3nccn3)sc21)OC1CCOCC1 [Example 55]	> 1 µM
COc1ccccc1[C@H](Cn1c(=O)n(C2(CC(=O)O)CC2)c(=O)c2c(C)c(-c3ncco3)sc21)OC1CCOCC1 [Example 61]	> 1 µM
CNC(=O)CC1(n2c(=O)c3c(C)c(Br)sc3n(C[C@H](OC3CCOCC3)c3ccccc3OC)c2=O)CC1 [Example 62]	> 1 µM
CNC(=O)CC1(n2c(=O)c3c(C)c(-c4ncco4)sc3n(C[C@H](OC3CCOCC3)c3ccccc3OC)c2=O)CC1 [Example 63]	> 1 µM
COc1ccccc1[C@H](Cn1c(=O)n(C2(CC(N)=O)CC2)c(=O)c2c(C)c(-c3ncco3)sc21)OC1CCOCC1 [Example 64]	> 1 µM
COc1ccccc1[C@H](Cn1c(=O)n(C2CCC2C(=O)O)c(=O)c2c(C)c(-c3ncco3)sc21)OC1CCOCC1 (some centres unmarked) [Example 69]	> 1 µM

system: MDA-MB-468; assay: EC50 in MDA-MB-468; assay type: cell-based; conditions: MDA-MB-468, reference; read-out: EC50 MDA-MB-468 (cisplatin)

Compound	EC50
N.N.[Cl][Pt][Cl] [cisplatin, reference compound]	0.68 µM

same assay, conditions: MDA-MB-468; read-out: EC50 (μM) MDA-MB-468

Compound	EC50
COc1ccccc1[C@H](Cn1c(=O)n(C2(C(=O)O)CCCC2)c(=O)c2c(C)c(Br)sc21)OC1CCOCC1 [Example 30]	> 10 µM
COc1ccccc1[C@H](Cn1c(=O)n(C2(C(=O)O)CC2)c(=O)c2c(C)c(Cl)sc21)OC1CCOCC1 [Example 40]	> 10 µM
COc1ccccc1[C@H](Cn1c(=O)n(C2(C(=O)NS(C)(=O)=O)CC2)c(=O)c2c(C)c(-c3ncco3)sc21)OC1CCOCC1 [Example 41]	1 to 10 µM
COc1ccccc1[C@H](Cn1c(=O)n(C(C)(C)C(N)=O)c(=O)c2c(C)c(-c3ncco3)sc21)OC1CCOCC1 [Example 42]	> 10 µM

system: A549; assay: EC50 in A549; assay type: cell-based; conditions: A549, reference; read-out: EC50 A549 (cisplatin)

Compound	EC50
N.N.[Cl][Pt][Cl] [cisplatin, reference compound]	1.28 µM

same assay, conditions: A549; read-out: EC50 (μM) A549

Compound	EC50
COc1ccccc1[C@H](Cn1c(=O)n(C2(C(=O)O)CCCC2)c(=O)c2c(C)c(Br)sc21)OC1CCOCC1 [Example 30]	> 1 µM
COc1ccccc1[C@H](Cn1c(=O)n(C2(C(=O)O)CC2)c(=O)c2c(C)c(Cl)sc21)OC1CCOCC1 [Example 40]	> 1 µM
COc1ccccc1[C@H](Cn1c(=O)n(C2(C(=O)NS(C)(=O)=O)CC2)c(=O)c2c(C)c(-c3ncco3)sc21)OC1CCOCC1 [Example 41]	< 0.5 µM
COc1ccccc1[C@H](Cn1c(=O)n(C(C)(C)C(N)=O)c(=O)c2c(C)c(-c3ncco3)sc21)OC1CCOCC1 [Example 42]	< 0.5 µM

system: ACC1; assay: not given; conditions: ACC1 isolated from rat, mouse, monkey and human; cited from earlier work

Compound	IC50
O=C(c1c2ccccc2cc2ccccc12)N1CCC(N2CCC[C@@H](C(=O)N3CCOCC3)C2)CC1 [CP-640186]	60 nM

system: ACC2; assay: not given; conditions: ACC2 isolated from rat, mouse, monkey and human; cited from earlier work

Compound	IC50
O=C(c1c2ccccc2cc2ccccc12)N1CCC(N2CCC[C@@H](C(=O)N3CCOCC3)C2)CC1 [CP-640186]	60 nM
